Here are results for two substances from US6538019B1, “Functional emulsions” (Japan as represented by Director of National Food Research …, priority 2000, dated 2003).

The conditions of data set [1]: cited from earlier work.
Data set [2] is described as follows: Stability of the emulsions examined by a turbidity method. Format: physicochemical. Particulars: addition amount of PG varied within 1 wt %-5 wt %. The source says: Next, the addition amount of polyglycerol oleic acid ester (PG) was variously changed within the range of 1 wt %-5 wt % and the stability of the emulsions was examined by a turbidity method.
The nature of data set [3]: Dispersion behavior by small-angle X-ray scattering method (SAXS). Format: physicochemical. From the text: Further, the dispersion behavior of the polyglycerol oleic acid ester (PG) was examined using a small-angle X-ray scattering method (SAXS). It turned out that the polyglycerol oleic acid ester (PG) in ethanol was a molecular assembly having the radius of inertia of about 7 Å and the polyglycerol oleic acid ester (PG) in triolein was a molecular assembly having the radius of inertia of about 90 Å. As a result, it can be said that the stability of emulsions can be achieved by increasing the ratio of triolein with respect to ethanol.

Data set [4] is described as follows: Stability of the emulsion (time to phase separation of E/O emulsion). The data set is classed as physicochemical. Particulars: concentration of the emulsifying agent 5%; ratio of triolein and ethanol 8:2. As to the method: First, sunflower seed oil (having the triolein purity 90% or more, as produced by Nippon Lever B. V.) as a continuous phase, 95% ethanol as a dispersed phase, and polyglycerol oleic acid ester (MO750, HLB12.9) as an emulsifying agent (surfactant) were prepared.
Next, polyphenol was dissolved in ethanol. As the polyphenol to be used, catechin, anthocyanin, quercetin can be listed.
Thereafter, the ethanol, to which 1 wt % polyglycerol oleic acid ester (PG) was added, and triolein (sunflower seed oil) were stirred at 3000 rpm for ten minutes with a homogenizer (Polytron: PT3000), thereby attempting the production of an emulsion.
Furthermore, the possibility of using emulsifying agents other than polyglycerol oleic acid ester (PG) was examined. In Table 2, DAO750 indicates decaglycerol decaester, PO500 indicates hexaglycerol pentaester, PO310 indicates tetraglycerol pentaester, MO310 indicates tetraglycerol monoester, MO500 indicates hexaglycerol monoester, and MO750 indicates polyglycerol oleic acid ester.

Consider anthocyanin, for which, in data set [1], the “Solubility with respect to water” value is recorded as “slightly soluble in water”.

On to polyglycerol oleic acid ester [MO750], for which, in data set [2], the “Change in emulsion stability” value is recorded as “A conspicuous change in emulsion stability was not found”. Moreover, the results for the “Radius of inertia of molecular assembly” value in data set [3] (in ethanol) and in data set [3] (in triolein) were “about 7 Å” and “about 90 Å”, respectively. For the same substance, in data set [4], the “Stability of E/O emulsion by emulsifying agent” value is given as “+++ (The sample did not cause the phase separation until five months.)”.
